Experimental data as given in patent US4183954A, “Benzoic acid derivatives and therapeutic composition containing the same” (Seuref A.G., priority 1977, dated 1980).

Columns and labels:
[1] = system: oedema of the rat's paw induced by dextran; experiment: Antiphlogistic activity, oedema of the rat's paw induced by dextran; assay type: in vivo
[2] = system: hepatic steatosis and hypercholesterolemia induced by Handler's steatogenic diet; experiment: Anti-steatotic activity (Handler's steatogenic diet); assay type: in vivo; conditions: rats, 50 mg/kg daily
Description: Administration of the test material to rats at a daily dosage of 50 mg/kg inhibits the hepatic steatosis and the hypercholesterolemia induced by Handler's steatogenic diet.

[3] = system: hypercholesterolemia induced by Twin-Triton; experiment: Hypocholesterolemic activity (Twin-Triton-induced hypercholesterolemia); assay type: in vivo; conditions: rats, 200 mg/kg Twin-Triton i.p.
[4] = system: anaphylactic reaction and death induced in guinea-pigs sensitized with horse serum; experiment: Antianaphylactic activity; assay type: in vivo
Description: Administration to […] of the test compound at a dosage of 60 mg/kg by the oral route or of 50 mg/kg by the intraperitoneal route inhibits the anaphylactic reaction and the death induced in guinea-pigs sensitized with horse serum.

[5] = system: experimental phlogistic reaction; experiment: Antiphlogistic activity, experimental phlogistic reaction; assay type: in vivo; conditions: rats, intraperitoneal or oral, 50 mg/kg to 300 mg/kg
Description: Intraperitoneal or oral administration of the test material at dosages within the range of from 50 mg/kg to 300 mg/kg inhibits the experimental phlogistic reaction induced in rats.

[6] = system: granulomatous reaction induced by the sub-cutaneous penetration of foreign bodies; experiment: Experimental granuloma test; assay type: in vivo
[7] = Acute toxicity (LD50), method of Lichtfield and Wilcoxon, rats; conditions: rat, in vivo
[8] = Acute toxicity (LD50), method of Lichtfield and Wilcoxon, mice; conditions: mouse, in vivo
[9] = Chronic toxicity test, 3 months; assay type: in vivo, rats
From the text: The chronic toxicity tests confirmed the low toxicity of the product.

[10] = system: oedema of the rat's paw induced by carageenin; experiment: Antiphlogistic activity, oedema of the rat's paw induced by carageenin; assay type: in vivo
choleresis = experiment: Choleretic activity; assay type: in vivo; conditions: rats

CC(C)(Oc1cccc2ccccc12)C(=O)Nc1ccc(C(=O)O)cc1 [Compound 1, p-[α-(α-naphthoxy)isobutyramido]benzoic acid]
inhibition of paw oedema induced by dextran [1]: inhibits | inhibition of hepatic steatosis [2]: inhibits | inhibition of hypercholesterolemia [2]: inhibits | inhibition of hypercholesterolemia ([3]; 100 mg/kg intraperitoneal): inhibits | inhibition of hypercholesterolemia ([3]; 300 mg/kg oral): inhibits | inhibition of anaphylactic reaction and death ([4]; 50 mg/kg intraperitoneal): inhibits | inhibition of anaphylactic reaction and death ([4]; 60 mg/kg oral): inhibits | inhibition of experimental phlogistic reaction [5]: inhibits | inhibition of granulomatous reaction [6]: inhibits | LD50 ([7]; ip, intraperitoneal): 425 mg/kg | LD50 ([7]; oral): 2200 mg/kg | LD50 ([8]; ip, intraperitoneal): 395 mg/kg | LD50 ([8]; oral): 2500 mg/kg | intolerance and toxicity ([9]; 50 mg/kg, 3 months): did not induce any intolerance and any toxicity | blood, glycemia, transaminases, urinary excretion and azotemia ([9]; 50 mg/kg, 3 months, treated rats, beginning and end of treatment): failed to disclose any significant change or pathological modification | chronic toxicity (overall) ([9]; chronic toxicity tests): low toxicity | inhibition of paw oedema induced by carageenin [10]: inhibits | elimination of biliary pigments or cholesterol (choleresis): increase concerns the elimination of either the biliary pigments or cholesterol | choleresis (choleresis; intraperitoneal, 20 mg/kg): significant increase of choleresis | choleresis (choleresis; oral, 100 mg/kg): significant increase of choleresis | increase of the choleresis compared with dehydrocholic acid (choleresis; versus dehydrocholic acid): more substantial and more extended than that induced by dehydrocholic acid
